Experiments:
SARS-CoV-2 [1] = experiment: microbe, parasite or virus in culture; settings: Severe acute respiratory syndrome coronavirus 2, omicron TY38-873 BA.2, HEK-293T
SARS-CoV-2 [2] = experiment: microbe, parasite or virus in culture; settings: Severe acute respiratory syndrome coronavirus 2, omicron TY38-873 BA.1, HEK-293T

Row | SMILES | EC50 (SARS-CoV-2 [1]) [µM] | EC50 (SARS-CoV-2 [2]) [µM]
1 | CC(C)C[C@H](NC(=O)c1cc2c(F)cccc2[nH]1)C(=O)NN(C[C@@H]1CCNC1=O)C(=O)[C@@H](F)Cl | 0.126 | 0.0356
2 | COc1cccc2[nH]c(C(=O)N[C@@H](CC(C)C)C(=O)NN(C[C@@H]3CCNC3=O)C(=O)[C@H](F)Cl)cc12 | 0.0183 | 0.0101
3 | CC(C)C[C@H](NC(=O)c1cc2c(F)cccc2[nH]1)C(=O)NN(C[C@@H]1CCNC1=O)C(=O)[C@H](F)Cl | 0.0171 | 0.00901
4 | O=c1nc(NO)ccn1[C@@H]1O[C@H](CO)[C@@H](O)[C@H]1O [N-HYDROXYCYTIDINE] | 0.336 | 0.574
5 | CC(C)C[C@H](NC(=O)c1cc2c(F)cccc2[nH]1)C(=O)NN(C[C@H]1CCNC1=O)C(=O)[C@H](F)Cl | 0.131 | 0.0587
6 | COc1cccc2[nH]c(C(=O)N[C@@H](CC(C)C)C(=O)N[C@@H](C[C@@H]3CCNC3=O)C(=O)CO)cc12 [PF-00835231] | 0.832 | 0.775
7 | COc1cccc2[nH]c(C(=O)N[C@@H](CC(C)C)C(=O)NN(C[C@H]3CCNC3=O)C(=O)[C@H](F)Cl)cc12 | 0.121 | 0.0588

From ChEMBL document CHEMBL5108072, “Discovery of Chlorofluoroacetamide-Based Covalent Inhibitors for Severe Acute Respiratory Syndrome Coronavirus 2 3CL Protease” (J Med Chem, 2022)
